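Results reflect a 48-hour exposure of cells in 96-well plates to compound at five concentrations. GI50 = concentration required for 50% inhibition of growth. TGI is the concentration that stops growth completely.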
Legend:
Assay in all cases: DTP human tumour cell line panel, 48 h
HCT-116 colon = test system: HCT-116 colon
KM12 colon = test system: KM12 colon
ACHN renal = test system: ACHN renal
SF-539 CNS = test system: SF-539 CNS
HOP-62 NSCLC = test system: HOP-62 NSCLC
MDA-MB-435 = test system: MDA-MB-435
OVCAR-8 ovarian = test system: OVCAR-8 ovarian
LOX IMVI melanoma = test system: LOX IMVI melanoma
IGROV1 ovarian = test system: IGROV1 ovarian
HCT-15 colon = test system: HCT-15 colon
A498 renal = test system: A498 renal
RXF 393 renal = test system: RXF 393 renal
UO-31 renal = test system: UO-31 renal
NCI-H460 lung = test system: NCI-H460 lung
HS 578T breast = test system: HS 578T breast
K-562 leukemia = test system: K-562 leukemia
HOP-92 NSCLC = test system: HOP-92 NSCLC
SK-OV-3 ovarian = test system: SK-OV-3 ovarian
M14 melanoma = test system: M14 melanoma
HT29 colon = test system: HT29 colon
MOLT-4 leukemia = test system: MOLT-4 leukemia
T-47D breast = test system: T-47D breast
CAKI-1 renal = test system: CAKI-1 renal
CCRF-CEM leukemia = test system: CCRF-CEM leukemia
MALME-3M melanoma = test system: MALME-3M melanoma
SNB-19 CNS = test system: SNB-19 CNS
SK-MEL-2 melanoma = test system: SK-MEL-2 melanoma
HL-60(TB) leukemia = test system: HL-60(TB) leukemia
RPMI-8226 leukemia = test system: RPMI-8226 leukemia
COLO 205 colon = test system: COLO 205 colon
OVCAR-3 ovarian = test system: OVCAR-3 ovarian
MDA-MB-231 breast = test system: MDA-MB-231 breast
UACC-257 melanoma = test system: UACC-257 melanoma
NCI-H522 lung = test system: NCI-H522 lung
OVCAR-4 ovarian = test system: OVCAR-4 ovarian
PC-3 prostate = test system: PC-3 prostate
SK-MEL-28 melanoma = test system: SK-MEL-28 melanoma
UACC-62 melanoma = test system: UACC-62 melanoma
NCI/ADR-RES ovarian = test system: NCI/ADR-RES ovarian
DU-145 prostate = test system: DU-145 prostate
SW-620 colon = test system: SW-620 colon
SN12C renal = test system: SN12C renal
EKVX NSCLC = test system: EKVX NSCLC
OVCAR-5 ovarian = test system: OVCAR-5 ovarian
A549 NSCLC = test system: A549 NSCLC
SR leukemia = test system: SR leukemia
MCF7 breast = test system: MCF7 breast
786-0 renal = test system: 786-0 renal
SK-MEL-5 melanoma = test system: SK-MEL-5 melanoma
NCI-H23 lung = test system: NCI-H23 lung
SF-268 CNS = test system: SF-268 CNS
NCI-H226 lung = test system: NCI-H226 lung
TK-10 renal = test system: TK-10 renal
BT-549 breast = test system: BT-549 breast
U251 CNS = test system: U251 CNS
SNB-75 CNS = test system: SNB-75 CNS
SF-295 CNS = test system: SF-295 CNS

SMILES: CCCn1c(N)c(C(=O)N/N=C(/C)c2cc3cccc(OC)c3o2)sc1=S
- GI50 (HCT-116 colon): 17.4 µM
- TGI (HCT-116 colon): > 100 µM
- GI50 (KM12 colon): 22.2 µM
- TGI (KM12 colon): > 100 µM
- GI50 (ACHN renal): 46.8 µM
- TGI (ACHN renal): > 100 µM
- GI50 (SF-539 CNS): 17.1 µM
- TGI (SF-539 CNS): 90.7 µM
- GI50 (HOP-62 NSCLC): 11.8 µM
- TGI (HOP-62 NSCLC): 30 µM
- GI50 (MDA-MB-435): 56.6 µM
- TGI (MDA-MB-435): > 100 µM
- GI50 (OVCAR-8 ovarian): 13.8 µM
- TGI (OVCAR-8 ovarian): > 100 µM
- GI50 (LOX IMVI melanoma): 16.5 µM
- TGI (LOX IMVI melanoma): > 100 µM
- GI50 (IGROV1 ovarian): 48.2 µM
- TGI (IGROV1 ovarian): > 100 µM
- GI50 (HCT-15 colon): 22.1 µM
- TGI (HCT-15 colon): > 100 µM
- GI50 (A498 renal): 65.4 µM
- TGI (A498 renal): > 100 µM
- GI50 (RXF 393 renal): 24.1 µM
- TGI (RXF 393 renal): > 100 µM
- GI50 (UO-31 renal): 27.7 µM
- TGI (UO-31 renal): > 100 µM
- GI50 (NCI-H460 lung): 17.7 µM
- TGI (NCI-H460 lung): > 100 µM
- GI50 (HS 578T breast): 17.7 µM
- TGI (HS 578T breast): 69.9 µM
- GI50 (K-562 leukemia): 18.3 µM
- TGI (K-562 leukemia): > 100 µM
- GI50 (HOP-92 NSCLC): 27.4 µM
- TGI (HOP-92 NSCLC): 78.8 µM
- GI50 (SK-OV-3 ovarian): 65.4 µM
- TGI (SK-OV-3 ovarian): > 100 µM
- GI50 (M14 melanoma): 53.8 µM
- TGI (M14 melanoma): > 100 µM
- GI50 (HT29 colon): 16.4 µM
- TGI (HT29 colon): > 100 µM
- GI50 (MOLT-4 leukemia): 24.2 µM
- TGI (MOLT-4 leukemia): > 100 µM
- GI50 (T-47D breast): > 100 µM
- TGI (T-47D breast): > 100 µM
- GI50 (CAKI-1 renal): 0.0161 µM
- TGI (CAKI-1 renal): > 100 µM
- GI50 (CCRF-CEM leukemia): 30.7 µM
- TGI (CCRF-CEM leukemia): > 100 µM
- GI50 (MALME-3M melanoma): 74 µM
- TGI (MALME-3M melanoma): > 100 µM
- GI50 (SNB-19 CNS): 30.2 µM
- TGI (SNB-19 CNS): > 100 µM
- GI50 (SK-MEL-2 melanoma): 53.3 µM
- TGI (SK-MEL-2 melanoma): > 100 µM
- GI50 (HL-60(TB) leukemia): > 100 µM
- TGI (HL-60(TB) leukemia): > 100 µM
- GI50 (RPMI-8226 leukemia): 53.6 µM
- TGI (RPMI-8226 leukemia): > 100 µM
- GI50 (COLO 205 colon): 56.7 µM
- TGI (COLO 205 colon): > 100 µM
- GI50 (OVCAR-3 ovarian): 30.1 µM
- TGI (OVCAR-3 ovarian): > 100 µM
- GI50 (MDA-MB-231 breast): > 100 µM
- TGI (MDA-MB-231 breast): > 100 µM
- GI50 (UACC-257 melanoma): 23.2 µM
- TGI (UACC-257 melanoma): > 100 µM
- GI50 (NCI-H522 lung): 51.6 µM
- TGI (NCI-H522 lung): > 100 µM
- GI50 (OVCAR-4 ovarian): 49.7 µM
- TGI (OVCAR-4 ovarian): > 100 µM
- GI50 (PC-3 prostate): 30.6 µM
- TGI (PC-3 prostate): > 100 µM
- GI50 (SK-MEL-28 melanoma): 49.7 µM
- TGI (SK-MEL-28 melanoma): > 100 µM
- GI50 (UACC-62 melanoma): 34.6 µM
- TGI (UACC-62 melanoma): > 100 µM
- GI50 (NCI/ADR-RES ovarian): 18.6 µM
- TGI (NCI/ADR-RES ovarian): > 100 µM
- GI50 (DU-145 prostate): 26.4 µM
- TGI (DU-145 prostate): > 100 µM
- GI50 (SW-620 colon): 19.2 µM
- TGI (SW-620 colon): > 100 µM
- GI50 (SN12C renal): 45 µM
- TGI (SN12C renal): > 100 µM
- GI50 (EKVX NSCLC): 32.6 µM
- TGI (EKVX NSCLC): > 100 µM
- GI50 (OVCAR-5 ovarian): > 100 µM
- TGI (OVCAR-5 ovarian): > 100 µM
- GI50 (A549 NSCLC): 12.5 µM
- TGI (A549 NSCLC): > 100 µM
- GI50 (SR leukemia): 8.66 µM
- TGI (SR leukemia): > 100 µM
- GI50 (MCF7 breast): 28 µM
- TGI (MCF7 breast): > 100 µM
- GI50 (786-0 renal): 25.5 µM
- TGI (786-0 renal): 51.6 µM
- GI50 (SK-MEL-5 melanoma): 36.1 µM
- TGI (SK-MEL-5 melanoma): > 100 µM
- GI50 (NCI-H23 lung): 41.1 µM
- TGI (NCI-H23 lung): > 100 µM
- GI50 (SF-268 CNS): 22.4 µM
- TGI (SF-268 CNS): > 100 µM
- GI50 (NCI-H226 lung): 45.2 µM
- TGI (NCI-H226 lung): > 100 µM
- GI50 (TK-10 renal): 28.8 µM
- TGI (TK-10 renal): > 100 µM
- GI50 (BT-549 breast): 77.5 µM
- TGI (BT-549 breast): > 100 µM
- GI50 (U251 CNS): 18.3 µM
- TGI (U251 CNS): 55.5 µM
- GI50 (SNB-75 CNS): 30.1 µM
- TGI (SNB-75 CNS): 82.3 µM
- GI50 (SF-295 CNS): 0.01 µM
- TGI (SF-295 CNS): 18.1 µM

SMILES: COc1ccc(N2C(=O)CS(=O)(=O)C2c2cccc(Oc3ccccc3)c2)cc1 (stereo not drawn)
- TGI (HCT-116 colon): 5.88 µM
- TGI (KM12 colon): > 100 µM
- TGI (ACHN renal): 32.8 µM
- TGI (SF-539 CNS): 15.1 µM
- TGI (HOP-62 NSCLC): > 100 µM
- TGI (MDA-MB-435): 7.08 µM
- TGI (OVCAR-8 ovarian): 95.7 µM
- TGI (LOX IMVI melanoma): 29.5 µM
- TGI (HCT-15 colon): 55.2 µM
- TGI (RXF 393 renal): 19 µM
- TGI (UO-31 renal): 71.3 µM
- TGI (NCI-H460 lung): 8.03 µM
- TGI (HS 578T breast): 28.5 µM
- TGI (K-562 leukemia): 8.44 µM
- TGI (HOP-92 NSCLC): 72.1 µM
- TGI (SK-OV-3 ovarian): > 100 µM
- TGI (M14 melanoma): 22.6 µM
- TGI (HT29 colon): 50.9 µM
- TGI (MOLT-4 leukemia): 21.9 µM
- TGI (T-47D breast): > 100 µM
- TGI (CAKI-1 renal): 19.3 µM
- TGI (CCRF-CEM leukemia): > 100 µM
- TGI (MALME-3M melanoma): 54.6 µM
- TGI (SNB-19 CNS): > 100 µM
- TGI (SK-MEL-2 melanoma): 15.9 µM
- TGI (HL-60(TB) leukemia): > 100 µM
- TGI (COLO 205 colon): 11.4 µM
- TGI (OVCAR-3 ovarian): > 100 µM
- TGI (MDA-MB-231 breast): 7.6 µM
- TGI (UACC-257 melanoma): 10.9 µM
- TGI (NCI-H522 lung): 13.8 µM
- TGI (OVCAR-4 ovarian): 79.5 µM
- TGI (PC-3 prostate): 51.9 µM
- TGI (SK-MEL-28 melanoma): > 100 µM
- TGI (UACC-62 melanoma): 6.25 µM
- TGI (NCI/ADR-RES ovarian): 15.4 µM
- TGI (DU-145 prostate): > 100 µM
- TGI (SW-620 colon): > 100 µM
- TGI (SN12C renal): 21.4 µM
- TGI (EKVX NSCLC): 47.8 µM
- TGI (OVCAR-5 ovarian): > 100 µM
- TGI (A549 NSCLC): > 100 µM
- TGI (SR leukemia): 8.48 µM
- TGI (MCF7 breast): 4.72 µM
- TGI (786-0 renal): 21.1 µM
- TGI (SK-MEL-5 melanoma): 16.7 µM
- TGI (NCI-H23 lung): > 100 µM
- TGI (SF-268 CNS): 38.4 µM
- TGI (NCI-H226 lung): 52.6 µM
- TGI (TK-10 renal): 8.46 µM
- TGI (BT-549 breast): 54.1 µM
- TGI (U251 CNS): 22.1 µM
- TGI (SNB-75 CNS): 45.2 µM
- TGI (SF-295 CNS): > 100 µM

Reference: PubChem BioAssay (NCI)
